For one assay, the system named is Ar42J cells. The experiment in a line: Cell death kinetics. The assay is classed as cell-based, rat. As to conditions: MTS, n = 3, 6 at 60 nM, α-amanitin 1 at 10 μM.
Assay [1] concerns sstr2-negative CHO cell line. As to conditions: read-out: IC50 on CHO cells; cited from earlier work.
The next assay deals with sstr2. As to conditions: read-out: Kd for sstr2; cited from earlier work.

pIC50, pKd: −log10 of the molar value.

Here are results for three substances from PMC8729174 (RSC Chemical Biology, 2021).

A word on the pIC50: it is the IC50 on a negative log10 scale, so that one unit is a factor of ten. Turning to α-amanitin [compound 1], the “cell viability after 24 hours of incubation (in words)” value in the assay with Ar42J cells (24 h) is listed as “remained fully viable”. Moreover, the “cell viability after 48 hours of incubation (in words)” value with Ar42J cells (48 h) is recorded as “loss of cell viability was only observed after 48 hours”. Moreover, the pIC50 in assay [1] was 6.15 to 6.52.

As usually defined, the pKd is the Kd on a negative log10 scale, so that one unit is a factor of ten. Regarding octreotate [compound 2], on sstr2, the negative logarithm of the Kd (pKd) is approximately 9.40.

Take “N-propargyl-dideoxy-amanitin [compound 4]”: the pIC50 in assay [1] was 5.70 to 6.00.
